# From ChEMBL document CHEMBL1201862, “PubChem BioAssay data set” (2004)
# Active and inactive are the calls of the source.
# Assays:
# Vero = assay: viability loss in Vero cells – cell-based, plate reader, cherry-pick samples, cytotoxicity control, dose response (AID 687020); format: functional; conditions: Chlorocebus sabaeus
# Fatty acid synthase [1] = target: T1, Fatty acid synthase (Homo sapiens, UniProt P49327); assay: inhibition of human FAS-TE enzyme activity – biochemical, kinetic fluorescence intensity, dose response (AID 624326); format: functional;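 further: rate of fluorescence rise from hydrolysis of a fluorogenic O-methyl fluorescein ester substrate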
# T1 sequence (P49327 whole entry): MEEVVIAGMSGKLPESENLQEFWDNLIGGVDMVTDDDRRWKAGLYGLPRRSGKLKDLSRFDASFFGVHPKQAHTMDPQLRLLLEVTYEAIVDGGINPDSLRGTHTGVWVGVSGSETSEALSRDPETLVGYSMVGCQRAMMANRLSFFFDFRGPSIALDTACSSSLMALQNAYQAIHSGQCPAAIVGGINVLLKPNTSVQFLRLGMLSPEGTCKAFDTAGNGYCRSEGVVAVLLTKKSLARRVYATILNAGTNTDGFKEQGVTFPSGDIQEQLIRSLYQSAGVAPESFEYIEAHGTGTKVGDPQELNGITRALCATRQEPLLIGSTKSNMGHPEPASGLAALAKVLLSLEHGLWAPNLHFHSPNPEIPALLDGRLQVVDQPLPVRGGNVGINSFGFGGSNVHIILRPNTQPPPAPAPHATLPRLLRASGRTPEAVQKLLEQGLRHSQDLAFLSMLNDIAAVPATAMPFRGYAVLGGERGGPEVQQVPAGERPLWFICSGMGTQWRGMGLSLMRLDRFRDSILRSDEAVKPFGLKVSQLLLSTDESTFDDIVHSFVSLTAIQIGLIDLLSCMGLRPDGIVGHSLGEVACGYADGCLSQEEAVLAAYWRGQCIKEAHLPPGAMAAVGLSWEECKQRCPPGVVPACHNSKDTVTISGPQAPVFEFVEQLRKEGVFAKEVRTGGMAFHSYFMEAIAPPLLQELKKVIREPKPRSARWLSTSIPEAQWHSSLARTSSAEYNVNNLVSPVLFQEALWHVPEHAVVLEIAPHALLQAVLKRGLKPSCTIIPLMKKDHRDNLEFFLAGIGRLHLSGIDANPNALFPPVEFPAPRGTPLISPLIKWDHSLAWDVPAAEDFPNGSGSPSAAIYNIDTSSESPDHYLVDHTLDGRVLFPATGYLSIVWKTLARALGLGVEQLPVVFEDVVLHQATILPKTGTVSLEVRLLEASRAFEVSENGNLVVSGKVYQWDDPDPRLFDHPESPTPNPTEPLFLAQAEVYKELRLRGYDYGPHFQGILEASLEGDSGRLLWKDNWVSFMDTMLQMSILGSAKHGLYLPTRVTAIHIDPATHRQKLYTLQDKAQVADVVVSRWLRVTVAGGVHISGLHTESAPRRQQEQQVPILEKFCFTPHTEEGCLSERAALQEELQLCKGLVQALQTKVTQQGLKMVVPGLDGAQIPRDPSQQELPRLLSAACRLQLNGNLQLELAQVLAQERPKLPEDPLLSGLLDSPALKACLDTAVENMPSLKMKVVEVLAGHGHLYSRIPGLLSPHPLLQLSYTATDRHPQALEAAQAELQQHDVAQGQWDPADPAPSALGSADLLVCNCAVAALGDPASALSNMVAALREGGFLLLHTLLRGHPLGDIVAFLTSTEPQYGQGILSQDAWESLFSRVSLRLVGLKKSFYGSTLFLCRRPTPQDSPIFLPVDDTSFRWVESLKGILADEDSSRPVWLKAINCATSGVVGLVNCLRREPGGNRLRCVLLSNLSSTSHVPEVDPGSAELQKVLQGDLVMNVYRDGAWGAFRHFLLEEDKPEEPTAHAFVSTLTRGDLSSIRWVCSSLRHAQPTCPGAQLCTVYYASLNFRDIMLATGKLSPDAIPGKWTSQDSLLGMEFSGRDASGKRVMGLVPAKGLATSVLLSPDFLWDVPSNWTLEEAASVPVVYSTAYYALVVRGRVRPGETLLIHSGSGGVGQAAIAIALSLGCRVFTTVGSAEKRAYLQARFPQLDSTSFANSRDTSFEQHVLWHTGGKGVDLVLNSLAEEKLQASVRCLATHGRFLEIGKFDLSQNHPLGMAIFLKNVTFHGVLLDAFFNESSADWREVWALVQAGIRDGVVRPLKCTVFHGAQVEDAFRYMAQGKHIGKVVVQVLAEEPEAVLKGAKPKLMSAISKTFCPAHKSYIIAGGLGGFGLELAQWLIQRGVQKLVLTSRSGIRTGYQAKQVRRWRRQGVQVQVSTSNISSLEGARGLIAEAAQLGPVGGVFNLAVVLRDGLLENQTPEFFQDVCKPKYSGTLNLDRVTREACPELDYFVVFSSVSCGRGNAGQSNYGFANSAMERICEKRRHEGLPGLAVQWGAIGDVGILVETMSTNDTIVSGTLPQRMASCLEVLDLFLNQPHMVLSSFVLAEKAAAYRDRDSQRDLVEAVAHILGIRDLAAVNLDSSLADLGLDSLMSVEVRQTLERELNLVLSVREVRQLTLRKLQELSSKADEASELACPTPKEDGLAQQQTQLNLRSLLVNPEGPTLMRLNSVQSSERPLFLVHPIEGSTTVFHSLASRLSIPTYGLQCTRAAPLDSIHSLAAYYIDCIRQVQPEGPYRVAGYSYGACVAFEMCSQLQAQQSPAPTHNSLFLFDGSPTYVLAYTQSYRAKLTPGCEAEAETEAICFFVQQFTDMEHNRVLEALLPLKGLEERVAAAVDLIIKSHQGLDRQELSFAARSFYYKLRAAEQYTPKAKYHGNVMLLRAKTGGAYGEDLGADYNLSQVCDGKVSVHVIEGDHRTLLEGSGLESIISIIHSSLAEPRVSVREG
# Beta Lactamase = Beta Lactamase (Pseudomonas aeruginosa, UniProt Q932Y6); assay: BLA reporter interference, concentration series – BLA reporter cells, FRET fluorescence, artefact control for NOD2-RIPK2 interaction inhibitor project, dose response (AID 651552); format: functional, cell-based
# Chain of Beta Lactamase (Q932Y6 whole entry, the tested form may be a part): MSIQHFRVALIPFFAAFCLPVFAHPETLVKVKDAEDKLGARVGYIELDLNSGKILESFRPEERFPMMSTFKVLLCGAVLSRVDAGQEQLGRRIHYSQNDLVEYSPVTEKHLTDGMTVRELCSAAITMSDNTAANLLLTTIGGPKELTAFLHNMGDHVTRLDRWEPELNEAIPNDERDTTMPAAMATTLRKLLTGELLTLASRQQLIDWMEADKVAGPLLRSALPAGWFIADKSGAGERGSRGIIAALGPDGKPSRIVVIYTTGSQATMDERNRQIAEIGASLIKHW
# [2] = Fluorescence-based cell-based high throughput dose response assay for inhibitors of the interaction of nucleotide-binding oligomerization domain containing 2 (NOD2) and the receptor-interacting serine-threonine kinase 2 (RIPK2).; format: functional; conditions: Homo sapiens
# Fatty acid synthase [3] = target: T1, Fatty acid synthase; assay: inhibition of human FAS-TE enzyme activity – biochemical, endpoint fluorescence intensity, uHTS hits, dose response (AID 624327); format: functional;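 further: fluorescence from hydrolysis of an O-methyl fluorescein acyl ester substrate by the enzyme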
# [4] = target: T2, Corticotropin-releasing factor receptor 2/Corticotropin-releasing factor-binding protein (Homo sapiens, UniProt P24387+Q13324); assay: Dose Response confirmation of uHTS hits for small molecule antagonists of the CRF-binding protein and CRF-R2 receptor complex.; format: functional; conditions: read-out: IC50_Mean
# T2 sequence (Q13324 whole entry): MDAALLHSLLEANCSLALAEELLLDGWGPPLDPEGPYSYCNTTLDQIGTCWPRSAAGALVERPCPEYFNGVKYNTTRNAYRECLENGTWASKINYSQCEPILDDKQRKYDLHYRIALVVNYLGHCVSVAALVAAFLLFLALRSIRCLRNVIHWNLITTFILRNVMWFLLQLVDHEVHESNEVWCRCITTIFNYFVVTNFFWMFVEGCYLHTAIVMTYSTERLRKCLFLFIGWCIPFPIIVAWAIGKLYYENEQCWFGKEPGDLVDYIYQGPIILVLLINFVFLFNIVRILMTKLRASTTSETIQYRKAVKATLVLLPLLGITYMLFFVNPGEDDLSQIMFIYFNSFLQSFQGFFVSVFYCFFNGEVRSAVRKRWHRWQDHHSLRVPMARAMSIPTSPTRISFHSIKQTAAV
# T2 sequence (P24387 whole entry): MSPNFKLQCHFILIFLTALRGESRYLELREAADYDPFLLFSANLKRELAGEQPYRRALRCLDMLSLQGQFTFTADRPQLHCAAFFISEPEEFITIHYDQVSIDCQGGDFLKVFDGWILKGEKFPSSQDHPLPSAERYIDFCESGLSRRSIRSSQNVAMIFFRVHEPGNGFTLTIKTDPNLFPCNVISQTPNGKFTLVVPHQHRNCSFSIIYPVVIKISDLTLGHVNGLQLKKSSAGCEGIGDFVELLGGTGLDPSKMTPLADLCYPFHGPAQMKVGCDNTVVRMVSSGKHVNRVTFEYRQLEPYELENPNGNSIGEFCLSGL
# [5] = target: T2, Corticotropin-releasing factor receptor 2/Corticotropin-releasing factor-binding protein; assay: activators of CRF receptor 2 with binding protein – uHTS hits, confirmation (AID 602473); format: functional; conditions: read-out: EC50_Mean
# [6] = blockers of CRF-binding protein–CRF-R2 complex – cell-based, uHTS hits, 384-well, dose response (AID 651639); format: functional, Homo sapiens; conditions: read-out: IC50_Mean
# [7] = viability loss in CEM21 cells – cell-based, CellTiter-Glo luminescence, cherry-picked, cytotoxicity control for viral fusion inhibitor project, dose response (AID 652042); format: functional;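 further: potency for signal decrease meaning cytotoxicity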
# [8] = HIV-1 AD8 envelope cell-cell fusion blockers – cherry-pick, dose response (AID 652062); format: functional, cell-based;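 further: luciferase signal from cell-cell fusion driven by HIV-1 clade B AD8 Env; potency is for inhibitors of fusion seen as a drop in luminescence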
# [9] = target: ADP-ribosylation factor GTPase-activating protein 1 (Rattus norvegicus, UniProt Q62848); assay: Fluorescence polarization-based biochemical high throughput dose response screening assay to identify inhibitors of ADP-ribosylation factor GTPase activating protein 1 (ARFGAP1).; format: functional
# Chain of ADP-ribosylation factor GTPase-activating protein 1 (Q62848 whole entry): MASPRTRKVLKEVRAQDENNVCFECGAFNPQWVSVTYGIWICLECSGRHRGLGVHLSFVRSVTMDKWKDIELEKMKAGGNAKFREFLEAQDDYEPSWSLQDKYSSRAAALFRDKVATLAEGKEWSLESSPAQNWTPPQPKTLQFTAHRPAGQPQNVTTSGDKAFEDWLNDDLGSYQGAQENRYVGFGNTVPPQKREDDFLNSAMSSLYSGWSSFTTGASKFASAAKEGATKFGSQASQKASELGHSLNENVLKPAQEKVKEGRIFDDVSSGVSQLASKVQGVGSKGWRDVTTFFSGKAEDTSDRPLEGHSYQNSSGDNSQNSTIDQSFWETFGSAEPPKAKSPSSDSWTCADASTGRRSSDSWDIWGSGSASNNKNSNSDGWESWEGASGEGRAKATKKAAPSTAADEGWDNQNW
# cells [10] = format: functional, cell-based; conditions: HEK-CNG
# cells [11] = format: functional, cell-based
# cells [12] = format: functional, cell-based; remark: listed apart in the source
# [13] = target: T3, Trace amine-associated receptor 1 (Homo sapiens, UniProt Q96RJ0); assay: Fluorescence-based cell-based high throughput dose response assay to identify agonists of the human trace amine associated receptor 1 (TAAR1).; format: functional
# T3 sequence (Q96RJ0 whole entry): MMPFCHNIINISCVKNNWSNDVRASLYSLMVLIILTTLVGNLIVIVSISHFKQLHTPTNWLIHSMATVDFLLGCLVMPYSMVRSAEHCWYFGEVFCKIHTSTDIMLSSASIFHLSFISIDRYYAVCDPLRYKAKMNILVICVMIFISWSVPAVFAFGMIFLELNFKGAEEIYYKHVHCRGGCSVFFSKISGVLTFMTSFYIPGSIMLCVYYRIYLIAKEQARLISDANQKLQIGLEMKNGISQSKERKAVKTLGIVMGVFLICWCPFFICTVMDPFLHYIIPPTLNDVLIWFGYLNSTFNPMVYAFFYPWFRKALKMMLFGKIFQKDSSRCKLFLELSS
# [14] = target: T3, Trace amine-associated receptor 1; assay: Counterscreen for agonists of the human trace amine associated receptor 1 (hTAAR1): Fluorescence-based cell-based high throughput dose response assay to identify hTAAR1 agonist that also desensitize TAAR1 receptor response.; format: functional
# [15] = target: Arf-GAP with SH3 domain, ANK repeat and PH domain-containing protein 1 (Homo sapiens, UniProt Q9ULH1); format: functional;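 further: biochemical fluorescence polarization dose–response screen measuring inhibition of ASAP1; ASAP1 GAP domain stimulating GTP hydrolysis by truncated human ARF1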
# Chain of Arf-GAP with SH3 domain, ANK repeat and PH domain-containing protein 1 (Q9ULH1 whole entry, the tested form may be a part): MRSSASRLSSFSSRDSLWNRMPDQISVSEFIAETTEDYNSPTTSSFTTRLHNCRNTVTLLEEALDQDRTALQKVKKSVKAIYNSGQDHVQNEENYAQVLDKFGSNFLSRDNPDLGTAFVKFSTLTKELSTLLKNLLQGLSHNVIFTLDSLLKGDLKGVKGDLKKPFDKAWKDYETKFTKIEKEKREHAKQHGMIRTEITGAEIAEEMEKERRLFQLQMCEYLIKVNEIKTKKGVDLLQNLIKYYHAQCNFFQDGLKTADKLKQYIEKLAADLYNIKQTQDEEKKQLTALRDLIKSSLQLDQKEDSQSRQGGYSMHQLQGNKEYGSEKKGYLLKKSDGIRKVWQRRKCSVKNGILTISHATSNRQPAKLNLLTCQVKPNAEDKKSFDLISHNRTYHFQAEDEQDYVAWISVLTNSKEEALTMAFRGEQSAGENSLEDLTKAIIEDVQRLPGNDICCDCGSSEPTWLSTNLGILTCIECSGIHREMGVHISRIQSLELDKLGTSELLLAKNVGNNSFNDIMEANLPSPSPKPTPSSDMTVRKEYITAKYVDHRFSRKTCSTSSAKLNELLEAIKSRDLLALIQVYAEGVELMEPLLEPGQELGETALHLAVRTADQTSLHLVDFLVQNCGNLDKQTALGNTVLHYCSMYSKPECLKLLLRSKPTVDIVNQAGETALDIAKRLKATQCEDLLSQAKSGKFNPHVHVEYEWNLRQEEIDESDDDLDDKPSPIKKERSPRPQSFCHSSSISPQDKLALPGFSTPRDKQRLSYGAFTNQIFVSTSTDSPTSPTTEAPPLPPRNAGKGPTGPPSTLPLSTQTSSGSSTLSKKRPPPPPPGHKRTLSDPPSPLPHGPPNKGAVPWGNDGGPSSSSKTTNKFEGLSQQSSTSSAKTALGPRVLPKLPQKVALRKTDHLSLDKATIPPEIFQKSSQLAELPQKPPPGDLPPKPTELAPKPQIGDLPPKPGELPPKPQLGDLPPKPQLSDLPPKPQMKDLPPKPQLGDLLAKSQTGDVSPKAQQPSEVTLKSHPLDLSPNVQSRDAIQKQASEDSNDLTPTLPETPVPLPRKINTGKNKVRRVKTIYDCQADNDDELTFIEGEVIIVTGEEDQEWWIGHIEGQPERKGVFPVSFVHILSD
# Galanin receptor type 3 = Galanin receptor type 3 (Homo sapiens, UniProt O60755); assay: Fluorescence-based cell-based primary high throughput dose response assay to identify antagonists of the Galanin Receptor 3 (GalR3).; format: functional
# Chain of Galanin receptor type 3 (O60755 whole entry): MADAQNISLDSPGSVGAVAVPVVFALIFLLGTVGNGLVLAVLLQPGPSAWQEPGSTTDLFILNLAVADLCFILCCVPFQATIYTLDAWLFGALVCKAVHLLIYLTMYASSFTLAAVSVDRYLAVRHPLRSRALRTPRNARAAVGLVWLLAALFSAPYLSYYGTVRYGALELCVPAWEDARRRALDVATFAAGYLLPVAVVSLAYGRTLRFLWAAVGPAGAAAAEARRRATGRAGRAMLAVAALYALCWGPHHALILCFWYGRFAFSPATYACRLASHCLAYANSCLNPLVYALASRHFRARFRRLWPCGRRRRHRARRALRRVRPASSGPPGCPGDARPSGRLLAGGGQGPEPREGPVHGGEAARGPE
# [16] = luciferase reporter signal suppression in cells – H4 neuroglioma cells, luminescence, dose response (AID 1990); format: functional, cell-based
# [17] = Luminescence Cell-Based Dose Response HTS to Identify Inhibitors of 5'UTR Stem-Loop Driven Prion Protein mRNA Translation in H4 Neuroglioblastoma Cells. [Related pubchem assays: 1827 (Project Summary), 1813 (Primary HTS)]; format: functional
# [18] = alpha-synuclein stem-loop luciferase translation blockers – H4 neuroglioma cells, luminescence, confirmation (AID 1988); format: functional, cell-based
# [19] = target: T4, Nuclear receptor subfamily 0 group B member 1 (Homo sapiens, UniProt P51843); format: functional, cell-based;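 further: HEK293T cells transfected with SF-1 and DAX-1 plus StAR promoter luciferase reporter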
# T4 sequence (P51843 whole entry): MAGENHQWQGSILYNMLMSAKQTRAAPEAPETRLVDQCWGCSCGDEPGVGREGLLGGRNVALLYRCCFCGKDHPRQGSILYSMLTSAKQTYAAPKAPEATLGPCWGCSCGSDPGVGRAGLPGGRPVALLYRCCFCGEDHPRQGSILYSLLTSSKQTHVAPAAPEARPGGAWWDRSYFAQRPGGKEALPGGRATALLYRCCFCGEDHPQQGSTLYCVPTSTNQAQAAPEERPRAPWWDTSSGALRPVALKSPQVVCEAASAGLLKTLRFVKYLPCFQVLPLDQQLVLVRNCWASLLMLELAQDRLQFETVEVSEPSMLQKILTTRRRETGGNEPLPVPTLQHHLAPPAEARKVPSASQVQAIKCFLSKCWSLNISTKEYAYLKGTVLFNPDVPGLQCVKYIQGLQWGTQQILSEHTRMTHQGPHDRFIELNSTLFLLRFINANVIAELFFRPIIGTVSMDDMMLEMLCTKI
# cells [20] = format: functional, cell-based; remark: listed apart in the source
# [21] = viability loss in HEK293T cells – cell-based, cherry-picks, cytotoxicity control for HIV Vif inhibitor project, dose response (AID 652208); format: functional
# HEK293 = assay: EBV LMP1 TES2 canonical NF-kB signalling blockers – cell-based, HEK293, luciferase, cherry-pick, dose response (AID 588343); format: functional; conditions: Homo sapiens
# [22] = target: T5, DNA repair and recombination protein RAD54-like (Homo sapiens, UniProt Q92698); assay: RAD54 Holliday junction migration blockers – biochemical, fluorescence, cherry-picked samples, dose series, confirmation (AID 651657); format: functional
# T5 sequence (Q92698 whole entry): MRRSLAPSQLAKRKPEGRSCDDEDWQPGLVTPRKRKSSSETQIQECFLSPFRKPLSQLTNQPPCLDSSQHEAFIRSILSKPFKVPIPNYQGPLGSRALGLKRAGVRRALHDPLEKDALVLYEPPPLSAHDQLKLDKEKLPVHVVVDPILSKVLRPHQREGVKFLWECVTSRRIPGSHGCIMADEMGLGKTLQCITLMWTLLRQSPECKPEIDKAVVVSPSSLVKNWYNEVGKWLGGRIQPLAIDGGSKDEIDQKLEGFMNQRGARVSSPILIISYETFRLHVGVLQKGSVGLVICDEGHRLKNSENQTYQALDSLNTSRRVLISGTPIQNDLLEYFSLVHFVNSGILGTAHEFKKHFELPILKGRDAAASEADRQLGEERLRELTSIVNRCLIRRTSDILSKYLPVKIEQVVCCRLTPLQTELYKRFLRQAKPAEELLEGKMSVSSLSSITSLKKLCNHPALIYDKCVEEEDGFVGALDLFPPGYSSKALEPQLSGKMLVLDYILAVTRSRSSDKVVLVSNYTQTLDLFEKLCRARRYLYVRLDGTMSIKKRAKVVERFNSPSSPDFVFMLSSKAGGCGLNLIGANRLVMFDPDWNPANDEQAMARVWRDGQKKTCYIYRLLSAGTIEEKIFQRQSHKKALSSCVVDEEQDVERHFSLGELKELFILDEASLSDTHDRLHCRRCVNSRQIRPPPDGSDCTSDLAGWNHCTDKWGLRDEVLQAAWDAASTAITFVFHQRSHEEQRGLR
# [23] = acridine orange displacement from DNA – biochemical, fluorescence polarization, cherry-pick, artefact control for RAD54 inhibitor project, dose response (AID 651673); format: functional
# Beta-galactosidase = Beta-galactosidase (Escherichia coli, UniProt Q8VNN2); assay: PubChem AID 485352; format: functional
# [24] = target: T6, Type-1 angiotensin II receptor (Homo sapiens, UniProt P30556); assay: antagonism of angiotensin II type 1 receptor – cell-based, uHTS hits, selectivity assay for APJ receptor antagonist project, dose response (AID 463214); format: functional;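 further: antagonist potency against angiotensin II stimulated AT1 response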
# T6 sequence (P30556 whole entry): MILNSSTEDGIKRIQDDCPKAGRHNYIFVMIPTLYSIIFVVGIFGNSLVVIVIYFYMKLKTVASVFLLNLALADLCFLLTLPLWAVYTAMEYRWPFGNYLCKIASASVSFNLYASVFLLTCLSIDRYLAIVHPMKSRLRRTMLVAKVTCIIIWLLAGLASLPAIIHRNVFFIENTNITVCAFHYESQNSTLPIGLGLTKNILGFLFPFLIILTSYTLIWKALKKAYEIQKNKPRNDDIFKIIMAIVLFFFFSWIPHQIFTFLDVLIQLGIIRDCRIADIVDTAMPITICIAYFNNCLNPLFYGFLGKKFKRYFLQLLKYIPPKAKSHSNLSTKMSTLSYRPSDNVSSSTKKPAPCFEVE
smiles,measurement,setting,value
COc1ccc2ccccc2c1CNC(C)c1ccccc1 (stereo not drawn),AC50,Vero,31 µM (active)
CCOC(=O)[C@]12Cc3ccc(C)cc3[C@H]1N(C1CCCCC1)C(=O)c1ccccc12,IC50,Fatty acid synthase [1],6.79 µM (active)
same,IC50,Beta Lactamase,20 µM (inactive)
same,IC50,[2],2.19 µM (active)
same,IC50,Fatty acid synthase [3],6.12 µM (active)
CC(C)(C)c1cc(C(=O)NNC(=O)Nc2cccc(Cl)c2)n(Cc2ccccc2)n1,IC50,[4],2 µM (active)
same,EC50,[5],> 53 µM (inactive)
same,IC50,[6],5.13 µM (active)
O=C(Nc1ccc(CN2CCOCC2)cc1)c1ccc(-c2cccc(Cl)c2)o1,AC50,[7],44.2 µM (active)
same,AC50,[8],32.2 µM (active)
same,IC50,[9],81.7 µM (inactive)
Fc1ccc(N=C(S)NNc2ncc(C(F)(F)F)cc2Cl)c(F)c1,EC50,cells [10],> 29.9 µM (inactive)
Cn1cccc1CNCCc1ccc(F)cc1,EC50,cells [11],> 29.9 µM (inactive)
same,IC50,cells [12],> 29.9 µM (inactive)
same,EC50,[13],6.31 µM (active)
same,IC50,[14],20 µM (inactive)
Cc1nn(CC(=O)N/N=C/c2cccs2)c(C)c1[N+](=O)[O-],EC50,cells [11],> 29.9 µM (inactive)
same,IC50,cells [12],> 29.9 µM (inactive)
same,EC50,[13],2.82 µM (active)
same,IC50,[14],> 29.9 µM (inactive)
O=C(Cn1nc(-c2ccc3c(c2)OCCO3)ccc1=O)Nc1ccc(-n2cnnn2)cc1,IC50,[15],38.5 µM (inactive)
CCOc1nc(C#N)nc(N2CCCCC2)n1,EC50,cells [10],> 29.9 µM (inactive)
same,IC50,Galanin receptor type 3,1.09 µM (active)
CN1CCN(c2ccc(NC(=O)c3ccc4ccccc4c3)cc2)CC1,EC50,[16],7.8 µM (inconclusive)
same,EC50,[17],8.96 µM (inconclusive)
same,EC50,[18],9.94 µM (inconclusive)
same,IC50,[19],> 67.6 µM (inactive)
same,IC50,cells [20],> 67.6 µM (inactive)
COc1cc(/C=C(\C#N)c2ccccn2)ccc1OCC(=O)Nc1c(Cl)cccc1Cl,IC50,[9],96.6 µM (inactive)
COc1ccc2cc(-c3cc(C(=O)OCC(=O)NC4CCS(=O)(=O)C4)c4ccccc4n3)ccc2c1 (stereo not drawn),EC50,[16],10.1 µM (inconclusive)
same,AC50,[21],29.3 µM (active)
same,EC50,[17],7.41 µM (active)
same,EC50,[18],6.8 µM (active)
same,AC50,HEK293,1.09 µM (active)
CCOC(=O)c1cnc2c(C)cc(Cl)cc2c1NCCCN1CCOCC1,AC50,[22],17.4 µM (active)
same,AC50,[23],60.9 µM (active)
Fc1ccc(NC(=S)NNc2ncc(C(F)(F)F)cc2Cl)c(F)c1,EC50,Beta-galactosidase,> 40 µM (inactive)
same,IC50,[24],15.6 µM (active)
same,IC50,Galanin receptor type 3,1.79 µM (active)
N=C(N/N=C/c1ccnc2ccccc12)SC1CC(=O)N(c2ccc(Br)cc2)C1=O (stereo not drawn),IC50,[15],12.7 µM (inactive)
COc1ccc(OC)c(S(=O)(=O)N2c3ccccc3CC2C)c1 (stereo not drawn),IC50,[4],33.9 µM (active)
same,EC50,[5],> 53 µM (inactive)
same,IC50,[6],3.48 µM (active)
